The test system of the experiment is uremic C57BL/6 mice. Kind of experiment: carotid artery ligation (mid-focal LCA stenosis) model of neointimal hyperplasia in 5/6-nephrectomized uremic mice. The class given is in vivo. The conditions noted are these: for mean Intima Index (ratio of intima area/intima + media area): intraperitoneal injections for 21 days, n=7. The protocol: Carotid artery ligation was performed on 14 uremic C57BL/6 mice that underwent 5/6 nephrectomy. One week after nephrectomy, partial ligation of the left carotid artery (LCA) was performed on each mouse. Focal LCA stenosis was created by placing 9-0 nylon suture at 1mm proximal to the carotid bifurcation (mid-focal stenosis) around the artery using a 35-gauge blunt needle (World precision Instruments, Inc., Sarasota, FL). Then the needle mandrel was gently removed to restore blood flow.
Mice were fed a regular mouse diet and divided into 2 groups of 7 mice each; the experimental group received Peptide 4D while the Control group received saline injections by intraperitoneal route for 21 days, as this was the time shown in earlier studies to correlate with development of neointimal hyperplasia following partial ligation of the carotid artery.
The mice were then euthanized on day 21 and both LCA and right carotid artery (RCA) were excised for analysis. Specimens were embedded in paraffin. Serial sections (6 µm thick) were collected at 200-µm intervals of the LCA from mid-focal stenosis as well as from the RCA serving as lesion control. Data were analyzed qualitatively and quantitatively using Image J software. The two groups were compared for differences in mean Intima Area and Intima Index, defined as the ratio of intima area divided by intima plus media area.

Non-standard residues stand in square brackets, D forms with d. Residues, ends and D or L forms follow the SMILES beside them.

The values below come from patent EP4789715A2, “METHODS FOR TREATING NEOINTIMAL HYPERPLASIA USING F11R/JAM-A INHIBITORS” (The Research Foundation for The State University of New York, priority 2019, dated 2026).

For `CC(C)[C@H](NC(=O)[C@H](CO)NC(=O)[C@H](N)CCCCN)C(=O)N[C@H](C(=O)N[C@H](CCCNC(=N)N)C(=O)N[C@@H](CCC(=O)O)C(=O)N[C@@H](CC(=O)O)C(=O)N[C@H](C(=O)NCC(=O)N[C@H](C(=O)N[C@@H](Cc1ccc(O)cc1)C(=O)N[C@H](C(=O)N[C@@H](CS)C(N)=O)[C@@H](C)O)[C@@H](C)O)[C@@H](C)O)[C@@H](C)O` [Peptide 4D, NH2-(dK)-SVT-(dR)-EDTGTYTC-CONH2] (H-[dK]SVT[dR]EDTGTYTC-NH2), the “experimental mice LCA with severe neointimal hyperplasia” value (7 treated mice, day 21, all LCA in control mice developed severe neointimal hyperplasia, two with complete luminal occlusion) was “only one had severe neointimal hyperplasia”. Moreover, the “mean Intima Index (ratio of intima area/intima + media area)” value is, setting by setting: (average from 10 LCA locations, FIG. 6, control (0.27 + 0.13), p = 0.0079) “significantly less mean intima/intima + media ratio”; (average from 10 LCA locations, FIG. 6, control (0.27 + 0.13), p = 0.0079, listed as peptide 4D) 0.089 + 0.081; (from 1 LCA location with biggest focal stenosis, FIG. 7, control (0.47 + 0.15), p = 0.039) 0.31 + 0.14. Also, the “arterial lumen (H&E-stained cross sections of the carotid artery)” value (different distances from the point of ligation, compared to occluded lumens in the controls, FIGs. 1A-1B) is reported as “arterial lumen is preserved”. Besides, the “intima area relative to distance from the ligation point” value (mid focal stenosis morphometry of LCA, 10 locations, treated versus control untreated uremic mice, FIG. 4) is reported as “significantly smaller”. Moreover, the neointimal hyperplasia result (uremic C57BL/6 mice, carotid ligation model, 21 days of administration, overall conclusion in words) is given as “significantly inhibits neointimal hyperplasia”.
